This note sets out measurements from patent US20200061173A1, “IMMUNOGENIC COMPOSITION COMPRISING SURVIVIN PEPTIDES” (Vaxeal Research SAS, priority 2016, published 2020).

For test [1], the system named is Survivin peptides-specific T cell responses. Description: T cell immunogenicity in mouse strains, ex vivo IFN-γ ELISpot on total splenocytes. Conditions: splenocytes re-stimulated with the individual SVX-1 peptides. On the procedure:
T cell immunogenicity of the mixture and individual Survivin derived polypeptides (S1, S2 and S3) was evaluated in different mouse strains (C57BL/6 (H2^b); BALB/c (H2^d) and CBA (H2^k)) and in the pre-clinical mouse model HLA-DRB1*0101, HLA-A*0201 (with α3 from D^b), H-2^/ transgenic mice (Tg HLA-A2/DR1). The objective of this study was to select the optimal genetic background to further investigate the immunogenicity and therapeutic efficacy of the SVX-1 vaccine composes of an equimolar mixture of these 3 Survivin LSPs.
Six (6) to ten (10) weeks old female C57BL/6, BALB/c, and CBA mice were obtained from Charles River (Saint-Germain-Nuelles, France).
The transgenic HLA-A2/DR1 mice, previously described (Pajot et al. 2004), were bred and maintained under specific pathogen-free conditions in an animal facility. […] One week after the last immunization (D21), spleen cells of immunized mice were harvested, and the induction of Survivin peptides-specific T cell responses was detected ex vivo using IFN-γ ELISpot assay on the total splenocytes (2×10^5 cells) re-stimulated overnight with the mix of peptides or the individual peptides. […]

In test [2] the test system is PBMC T cells. Description: Spontaneous T-cell responses against SVX-1 peptides in blood, IFN-γ ELISpot. Type of test: cell-based, human. The following applies: among the 6 positive patients. The procedure:
Peripheral blood from 7 lung cancer patients was used to monitor the presence of SVX-1 peptides specific T cells. The cancer patients were recruited at the Hôpital Europeen Georges Pompidou (Paris, France). This study was conducted in accordance with French laws and after approval by the local ethics committee. Blood cells were also collected from 3 anonymous healthy donors at the Etablissement Français du Sang (EFS, Rungis, France) as buffy-coat preparations after informed consent and following EFS guidelines. The blood from the healthy donors served as negative controls.
PBMC were isolated by density centrifugation on Ficoll-Hyperpaque gradients (Sigma-Aldrich). PBMC were cultured for 6 days at 2×10^6 cells/ml in 2 ml per well with complete RPMI medium supplemented with 10% FCS. In each well, a pool of SVX-1 peptides was added at a concentration of 10 μg/ml. On day 2 after the beginning of the culture, IL-2 (Chiron) was added at 20 IU/ml in standard conditions. After 6 days of culture, ELISpot assays were performed using PHA-activated cells pulsed with the pool of SVX-1 peptides or the individual peptides (S1, S2 or S3) as antigen presenting cells (APCs). […]
Spots were counted using an automated stereomicro-scope (Zeiss). The number of specific T cells expressed as spot-forming cells/10^5 cells was calculated after subtracting negative control values (background). […]

“HRISTFKNWPFLEGCACT (alpha-isoform survivin S1 positions 17-34) [18 amino acid peptide consisting of wild type Survivin amino acids 17-34]”: the “T cell responses against individual peptides in CBA mice” value in test [1] is reported as “mainly directed against the S1 peptides”. Besides, the “Spontaneous T cell responses against individual peptides in lung cancer patients” value in test [2] is recorded as “detected”.
